Test results reported in ChEMBL document CHEMBL4482315, “In vivo imaging of sulfotransferases” (2013).

What was measured:
[1] = biological target: T1, Sulfotransferase 2A1 (Homo sapiens, UniProt Q06520); assay: Substrate activity at SULT2A1 (unknown origin) expressed in baculovirus infected Sf9 cells assessed as substrate Vmax/Km ratio incubated for 15 mins using [35S-]PAPS as sulfate donor by TLC analysis; conditions: sf9, 0.25 h, BLD = below limit of detection
T1 sequence (Q06520 whole entry): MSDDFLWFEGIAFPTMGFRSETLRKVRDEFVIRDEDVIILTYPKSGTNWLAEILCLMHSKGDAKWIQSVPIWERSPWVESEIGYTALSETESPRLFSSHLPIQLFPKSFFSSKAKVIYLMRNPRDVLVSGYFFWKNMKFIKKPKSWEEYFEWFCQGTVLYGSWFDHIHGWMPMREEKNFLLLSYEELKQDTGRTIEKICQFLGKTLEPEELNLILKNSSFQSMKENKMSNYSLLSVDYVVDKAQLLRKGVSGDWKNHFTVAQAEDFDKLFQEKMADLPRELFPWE

[2] = biological target: T1, Sulfotransferase 2A1; assay: Substrate activity at SULT2A1 (unknown origin) expressed in baculovirus infected Sf9 cells assessed as substrate Vmax incubated for 15 mins using [35S-]PAPS as sulfate donor by TLC analysis; conditions: sf9, 0.25 h, BLD = below limit of detection
[3] = biological target: T1, Sulfotransferase 2A1; assay: Substrate activity at SULT2A1 (unknown origin) expressed in baculovirus infected Sf9 cells assessed as substrate Km incubated for 15 mins using [35S-]PAPS as sulfate donor by TLC analysis; conditions: sf9, 0.25 h, BLD = below limit of detection
[4] = biological target: T2, Sulfotransferase 1E1 (Homo sapiens, UniProt P49888); assay: Substrate activity at SULT1E1 (unknown origin) expressed in baculovirus infected Sf9 cells assessed as substrate Vmax/Km ratio level incubated for 15 mins using [35S-]PAPS as sulfate donor by TLC analysis; conditions: sf9, 0.25 h
T2 sequence (P49888 whole entry): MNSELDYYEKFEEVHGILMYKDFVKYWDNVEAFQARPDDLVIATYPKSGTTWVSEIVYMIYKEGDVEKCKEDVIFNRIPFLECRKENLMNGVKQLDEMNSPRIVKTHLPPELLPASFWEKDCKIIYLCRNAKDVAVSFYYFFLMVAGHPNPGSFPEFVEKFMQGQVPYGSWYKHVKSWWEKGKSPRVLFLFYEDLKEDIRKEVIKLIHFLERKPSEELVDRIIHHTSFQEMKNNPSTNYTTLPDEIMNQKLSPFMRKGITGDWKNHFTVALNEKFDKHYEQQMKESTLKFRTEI

[5] = biological target: T2, Sulfotransferase 1E1; assay: Substrate activity at SULT1E1 (unknown origin) expressed in baculovirus infected Sf9 cells assessed as substrate Vmax incubated for 15 mins using [35S-]PAPS as sulfate donor by TLC analysis; conditions: sf9, 0.25 h, BLD = below limit of detection
[6] = biological target: T2, Sulfotransferase 1E1; assay: Substrate activity at SULT1E1 (unknown origin) expressed in baculovirus infected Sf9 cells assessed as substrate Km incubated for 15 mins using [35S-]PAPS as sulfate donor by TLC analysis; conditions: sf9, 0.25 h, BLD = below limit of detection
[7] = biological target: T3, Sulfotransferase 1A1 (Homo sapiens, UniProt P50225); assay: Substrate activity at SULT1A1 (unknown origin) expressed in baculovirus infected Sf9 cells assessed as substrate Vmax/Km ratio incubated for 15 mins using [35S-]PAPS as sulfate donor by TLC analysis; conditions: sf9, 0.25 h, BLD = below limit of detection
[8] = biological target: T3, Sulfotransferase 1A1; assay: Substrate activity at SULT1A1 (unknown origin) expressed in baculovirus infected Sf9 cells assessed as substrate Km incubated for 15 mins using [35S-]PAPS as sulfate donor by TLC analysis; conditions: sf9, 0.25 h, BLD = below limit of detection
[9] = biological target: T3, Sulfotransferase 1A1; assay: Substrate activity at SULT1A1 (unknown origin) expressed in baculovirus infected Sf9 cells assessed as substrate Vmax incubated for 15 mins using [35S-]PAPS as sulfate donor by TLC analysis; conditions: sf9, 0.25 h, BLD = below limit of detection
[10] = Drug uptake in liver of smoker human subject at 10.5 mCi by microPET imaging method; type: ADME
[11] = Drug uptake in lung of non-smoker human subject at 10 mCi by microPET imaging method; type: ADME
[12] = Drug uptake in liver of non-smoker human subject at 10 mCi by microPET imaging method; type: ADME
[13] = Drug uptake in kidney of non-smoker human subject at 10 mCi by microPET imaging method; type: ADME
[14] = Drug uptake in kidney of smoker human subject at 10.5 mCi by microPET imaging method; type: ADME
[15] = Drug uptake in lung of Sprague-Dawley rat with lung inflammation assessed as sulfated form formation at 2 to 2.5 mCi dosed via injection measured after 10 to 15 mins post dose by microPET imaging method; type: ADME, organism-based; conditions: in vivo
[16] = Drug uptake in lung of smoker human subject at 10.5 mCi by microPET imaging method; type: ADME

T3 sequence (P50225 whole entry): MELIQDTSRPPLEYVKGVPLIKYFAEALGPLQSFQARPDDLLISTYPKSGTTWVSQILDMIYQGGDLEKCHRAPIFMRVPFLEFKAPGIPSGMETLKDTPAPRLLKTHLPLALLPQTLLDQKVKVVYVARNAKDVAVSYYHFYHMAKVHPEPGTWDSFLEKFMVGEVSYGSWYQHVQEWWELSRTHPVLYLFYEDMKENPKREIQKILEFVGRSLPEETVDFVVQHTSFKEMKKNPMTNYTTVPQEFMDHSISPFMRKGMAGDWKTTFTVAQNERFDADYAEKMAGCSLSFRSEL

Row | Structure (SMILES) | Vmax/Km [1] | Vmax [2] | Km [3] | Vmax/Km [4] | Vmax/Km [7] | Km [8] | Vmax [9] | further results
1 | Oc1ccc2cc[nH]c2c1 | Bld | Bld | Bld | – | – | – | – | Vmax/Km ([4]; BLD = below limit of detection): Bld; Vmax [5]: Bld; Km [6]: Bld
2 | Oc1ccc2occc2c1 | Bld | Bld | Bld | 0.01 | – | – | – | –
3 | Oc1ccc2ccoc2c1 | Bld | Bld | Bld | 0.03 | – | – | – | –
4 | Oc1ccc2[nH]ccc2c1 | Bld | Bld | Bld | – | – | – | – | Vmax/Km ([4]; BLD = below limit of detection): Bld; Vmax [5]: Bld; Km [6]: Bld
5 | CS(=O)(=O)c1ccc(-c2nc3ccc(O)cc3s2)cc1 | Bld | Bld | Bld | 2.69 | Bld | Bld | Bld | –
6 | CC(=O)Nc1ccc(-c2nc3ccc(O)cc3s2)cc1 | Bld | Bld | Bld | 0.87 | Bld | Bld | Bld | –
7 | Oc1ccc2sccc2c1 | Bld | Bld | Bld | 0.08 | – | – | – | –
8 | Cc1nc2ccc(O)cc2s1 | Bld | Bld | Bld | 0.47 | – | – | – | –
9 | Cc1nc2cc(O)ccc2s1 | Bld | Bld | Bld | 0.3 | – | – | – | –
10 | CN(C)c1ccc(-c2nc3cc(O)ccc3s2)cc1 | Bld | Bld | Bld | 2.47 | – | – | – | –
11 | Oc1ccc2[nH]cnc2c1 | Bld | Bld | Bld | – | – | – | – | Vmax/Km ([4]; BLD = below limit of detection): Bld; Vmax [5]: Bld; Km [6]: Bld
12 | Oc1ccc2ncoc2c1 | Bld | Bld | Bld | 0.006 | – | – | – | –
13 | COc1ccc(-c2nc3ccc(O)cc3s2)cc1 | Bld | Bld | Bld | 2.19 | Bld | Bld | Bld | –
14 | N#Cc1ccc(-c2nc3ccc(O)cc3s2)cc1 | Bld | Bld | Bld | 17.1 | Bld | Bld | Bld | –
15 | O=[N+]([O-])c1ccc(-c2nc3ccc(O)cc3s2)cc1 | Bld | Bld | Bld | 29.2 | Bld | Bld | Bld | –
16 | Oc1ccc2nc(-c3ccc(I)cc3)sc2c1 | Bld | Bld | Bld | 5.64 | Bld | Bld | Bld | –
17 | Oc1ccc2ccsc2c1 | Bld | Bld | Bld | 0.25 | – | – | – | –
18 | Oc1ccc2ncsc2c1 | Bld | Bld | Bld | 0.04 | – | – | – | –
19 | Oc1ccc2nc(-c3ccccc3)sc2c1 | Bld | Bld | Bld | 3.22 | – | – | – | –
20 | Oc1ccc2nc(-c3ccc(F)cc3)sc2c1 | Bld | Bld | Bld | 4.52 | Bld | Bld | Bld | –
21 | CNc1ccc(-c2nc3cc(O)ccc3s2)cc1 | Bld | Bld | Bld | 1.39 | – | – | – | –
22 | CN(C)c1ccc(-c2nc3ccc(O)cc3s2)cc1 | Bld | Bld | Bld | 1.11 | Bld | Bld | Bld | –
23 | Nc1ccc(-c2nc3ccc(O)cc3s2)cc1 | Bld | Bld | Bld | 1.7 | Bld | Bld | Bld | –
24 | Oc1ccc2ccccc2c1 [BETANAPHTHOL] | – | – | – | 0.57 | – | – | – | –
25 | CNc1ccc(-c2nc3ccc(O)cc3s2)cc1 [PITTSBURGH COMPOUND B UNLABELLED] | Bld | Bld | Bld | 1.28 | Bld | Bld | Bld | –
26 | [11CH3]Nc1ccc(-c2nc3ccc(O)cc3s2)cc1 [PITTSBURGH COMPOUND B] | – | – | – | – | – | – | – | Drug uptake [10]: Active; Drug uptake [11]: Active; Drug uptake [12]: Active; Drug uptake [13]: Active; Drug uptake [14]: Active; Drug uptake [15]: Active; Drug uptake [16]: Active
